Data published in US7345070B2, “Peroxisome proliferator activated receptor agonists” (Eli Lilly and Company, priority 2000, dated 2008).
pIC50: −log10 of the molar value.

Legend:
huPPARα = target: T1, huPPARα (Homo sapiens, UniProt Q07869); test: DNA-dependent binding (ABCD binding) using SPA technology, huPPARα; details: SPA displacement of tritium-labeled PPARα agonist radioligand
T1 sequence (Q07869 1-468): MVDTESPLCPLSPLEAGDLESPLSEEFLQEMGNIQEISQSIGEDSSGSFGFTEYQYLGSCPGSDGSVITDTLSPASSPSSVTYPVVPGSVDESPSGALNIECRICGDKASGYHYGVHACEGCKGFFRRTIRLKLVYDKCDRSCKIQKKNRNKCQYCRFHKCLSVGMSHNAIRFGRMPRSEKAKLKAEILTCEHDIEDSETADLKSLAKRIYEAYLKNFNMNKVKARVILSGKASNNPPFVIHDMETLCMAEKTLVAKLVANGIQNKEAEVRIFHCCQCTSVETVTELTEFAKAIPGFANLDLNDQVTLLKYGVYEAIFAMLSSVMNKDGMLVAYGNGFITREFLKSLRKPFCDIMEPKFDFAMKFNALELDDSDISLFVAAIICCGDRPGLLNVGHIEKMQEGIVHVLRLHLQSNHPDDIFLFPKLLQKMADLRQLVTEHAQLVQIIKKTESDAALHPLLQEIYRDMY
T1 sequence (P19793 1-462 partner): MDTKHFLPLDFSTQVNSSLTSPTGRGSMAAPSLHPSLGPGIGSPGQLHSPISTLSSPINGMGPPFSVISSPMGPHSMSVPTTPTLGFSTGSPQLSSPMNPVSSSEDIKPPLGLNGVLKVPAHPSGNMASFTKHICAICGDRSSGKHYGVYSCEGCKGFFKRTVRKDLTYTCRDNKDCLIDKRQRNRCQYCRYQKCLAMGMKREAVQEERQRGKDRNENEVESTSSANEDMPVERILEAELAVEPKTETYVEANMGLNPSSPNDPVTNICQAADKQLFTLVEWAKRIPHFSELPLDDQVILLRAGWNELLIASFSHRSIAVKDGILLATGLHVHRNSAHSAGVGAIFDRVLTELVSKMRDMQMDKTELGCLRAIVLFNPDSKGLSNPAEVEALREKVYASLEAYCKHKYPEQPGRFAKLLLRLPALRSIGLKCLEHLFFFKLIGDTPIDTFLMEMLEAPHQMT
Experimental: (§1) DNA-dependent binding (ABCD binding) was carried out using SPA technology with PPAR receptors. Tritium-labeled PPARα and PPARγ agonists were used as radioligands for generating displacement curves and IC50 values with compounds of the invention. Cotransfection assays were carried out in CV-1 cells. The reporter plasmid contained an acylCoA oxidase (AOX) PPRE and TK promoter upstream of the luciferase reporter cDNA. Appropriate PPARs and RXRα were constitutively expressed using plasmids containing the CMV promoter. […] In order to eliminate such interference, a GAL4 chimeric system was used in which the DNA binding domain of the transfected PPAR was replaced by that of GAL4, and the GAL4 response element was utilized in place of the AOX PPRE. Cotransfection efficacy was determined relative to PPARα agonist and PPARγ agonist reference molecules. Efficacies were determined by computer fit to a concentration-response curve, or in some cases at a single high concentration of agonist (10 μM). For binding or cotransfection studies with receptors other than PPARs, similar assays were carried out using appropriate ligands, receptors, reporter constructs, etc., for that particular receptor.
(§2) These studies were carried out to evaluate the ability of compounds of the invention to bind to and/or activate various nuclear transcription factors, particularly huPPARα (“hu” indicates “human”) and huPPARγ. These studies provide in vitro data concerning efficacy and selectivity of compounds of the invention. Furthermore, binding and cotransfection data for compounds of the invention were compared with corresponding data for marketed compounds that act on either huPPARα or huPPARγ.

huPPARγ = target: T2, huPPARγ (Homo sapiens, UniProt P37231); test: DNA-dependent binding (ABCD binding) using SPA technology, huPPARγ; details: SPA displacement of tritium-labeled PPARγ agonist radioligand
T2 sequence (P37231 1-505): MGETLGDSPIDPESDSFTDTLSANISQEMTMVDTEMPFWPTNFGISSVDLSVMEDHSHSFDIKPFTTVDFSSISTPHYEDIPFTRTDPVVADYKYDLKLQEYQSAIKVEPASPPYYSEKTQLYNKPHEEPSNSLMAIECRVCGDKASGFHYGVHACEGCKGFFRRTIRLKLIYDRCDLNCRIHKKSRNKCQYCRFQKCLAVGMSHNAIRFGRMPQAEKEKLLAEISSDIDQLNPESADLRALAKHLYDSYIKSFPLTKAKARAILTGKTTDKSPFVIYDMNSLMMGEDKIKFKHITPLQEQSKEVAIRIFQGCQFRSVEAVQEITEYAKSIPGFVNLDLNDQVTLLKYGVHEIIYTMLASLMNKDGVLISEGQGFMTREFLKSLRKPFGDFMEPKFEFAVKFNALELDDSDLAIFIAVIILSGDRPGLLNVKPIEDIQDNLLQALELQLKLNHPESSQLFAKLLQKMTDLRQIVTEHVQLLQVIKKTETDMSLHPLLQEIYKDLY
T2 sequence (P19793 1-462 partner): T1 sequence (P19793 1-462 partner)
Experimental: as §1, §2

HuapoAI transgenic mice = test: Evaluation of triglyceride and cholesterol level in HuapoAI transgenic mice; assay type: in vivo; details: Mus musculus, 168 h, human apoAI transgenic mice, 30 mg/kg oral gavage daily for 7 days; for change in vivo at 30 mg/kg: FPLC area under the curve, over mice receiving vehicle, read-out: % HDLc Increase; for inhibition in vivo at 30 mg/kg: serum 3 h after dosing, read-out: Reduction in Triglyceride Serum Level
Experimental: After an acclimation period of 2 weeks, animals were individually identified by ear notches, weighed, and assigned to groups based on body weight. Beginning the following morning, mice were dosed daily by oral gavage for 7 days using a 20 gauge, 1½″ curved disposable feeding needle (Popper & Sons). […] Prior to termination on day 7, mice were weighed and dosed. Three hours after dosing, animals were anesthetized by inhalation of isoflurane (2-4%; Abbott Laboratories, Chicago, Ill.) and blood obtained via cardiac puncture (0.7-1.0 ml). Whole blood was transferred to serum separator tubes (Vacutainer SST), chilled on ice, and permitted to clot. Serum was obtained after centrifugation at 4° C. and frozen until analysis for triglycerides, total cholesterol, compound levels, and serum lipoprotein profile by fast protein liquid chromatography (FPLC) coupled to an inline detection system. After sacrifice by cervical dislocation, the liver, heart and epididymal fat pads were excised and weighed.
The absorbance of the dye produced is linearly related to the analyte in the sample. The assays were further modified in our laboratory for use in a 96 well format. […] An additional aliquot of sample, pipetted to a third well and diluted in 200 μl water, provided a blank for each specimen. […] Sample absorbances were compared to a standard curve (100-800, 10-500, and 100-400 mg/dl for glucose, triglycerides and total cholesterol, respectively). […] All samples from an experiment were assayed at the same time to minimize inter-assay variability.
Serum lipoproteins were separated and cholesterol quantitated with an in-line detection system. Sample was applied to a Superose® 6 HR 10/30 size exclusion column (Amersham Pharmacia Biotech) and eluted with phosphate buffered saline-EDTA at 0.5 ml/min. […] The change in voltage corresponding to change in cholesterol concentration was plotted vs time and the area under the curve corresponding to the elution of VLDL, LDL and HDL was calculated using Perkin Elmer Turbochrome software.

Structure (SMILES)	pIC50 (huPPARα)	pIC50 (huPPARγ)	change in vivo at 30 mg/kg (HuapoAI transgenic mice)	inhibition in vivo at 30 mg/kg (HuapoAI transgenic mice)
Cc1oc(-c2cccc(Br)c2)nc1CCOc1ccc(CC(C)(Oc2ccccc2)C(=O)O)cc1 (stereo not drawn) [Example 8, 3-(4-{2-[2-(3-Bromophenyl)-5-methyloxazol-4-yl]ethoxy}phenyl)-2-methyl-2-phenoxypropionic acid]	7.20	7.62	34%	–
Cc1oc(C2(C)CCCCC2)nc1CCOc1ccc(CC(C)(Oc2ccccc2)C(=O)O)cc1 (stereo not drawn) [Example 9, 2-Methyl-3-(4-{2-[5-methyl-2-(1-methylcyclohexyl)oxazol-4-yl]ethoxy}phenyl)-2-phenoxypropionic acid]	7.39	7.96	123%	19.8%
Cc1oc(-c2cccs2)nc1CCOc1ccc(CC(C)(Oc2ccc(C(C)(C)C)cc2)C(=O)O)cc1 (stereo not drawn) [Example 17, 2-Methyl-3-{4-[2-(5-methyl-2-thiophen-2-yl-oxazol-4-yl)-ethoxy]-phenyl}-2-(4-tert-butylphenoxy)-propionic acid]	7.17	7.17	119%	78.7%
Cc1oc(C2CCCCC2)nc1CCOc1ccc(CC(C)(Oc2ccc(C(C)(C)C)cc2)C(=O)O)cc1 (stereo not drawn) [Example 18, 2-Methyl-3-(4-{2-[5-methyl-2-cyclohexylyl-oxazol-4-yl]-ethoxy}-phenyl)-2-(4-tert-butylphenoxy)-propionic acid]	7.14	7.22	141%	69%
COc1ccc(OC(C)(Cc2ccc(OCCc3nc(-c4cccs4)oc3C)cc2)C(=O)O)cc1 (stereo not drawn) [Example 19, 2-Methyl-3-{4-[2-(5-methyl-2-thiophen-2-yl-oxazol-4-yl)-ethoxy]-phenyl}-2-(4-methoxyphenoxy)-propionic acid]	7.07	7.10	89%	40%
Cc1oc(-c2cccs2)nc1CCOc1ccc(CC(C)(Oc2cccc(F)c2)C(=O)O)cc1 (stereo not drawn) [Example 22, 2-(3-Fluoro-phenoxy)-2-methyl-3-{4-[2-(5-methyl-2-thiophen-2-yl-oxazol-4-yl)-ethoxy]-phenyl}-propionic acid]	7.15	7.07	29%	19.5%
Cc1oc(C2CCCCC2)nc1CCOc1ccc(CC(C)(Oc2cccc(F)c2)C(=O)O)cc1 (stereo not drawn) [Example 23, 2-(3-Fluoro-phenoxy)-2-methyl-3-{4-[2-(5-methyl-2-cyclohexyl-oxazol-4-yl)-ethoxy]-phenyl}-propionic acid]	7.20	7.09	54%	52.5%
Cc1oc(-c2cccs2)nc1CCOc1ccc(CC(C)(Oc2cccc(C(C)(C)C)c2)C(=O)O)cc1 (stereo not drawn) [Example 25, 2-(3-tert-Butyl-phenoxy)-2-methyl-3-{4-[2-(5-methyl-2-thiophen-2-yl-oxazol-4-yl)-ethoxy]-phenyl}-propionic acid]	7.14	7.15	8%	35.5%

Second part, led by results:

pIC50 (huPPARα)	pIC50 (huPPARγ)	Structure (SMILES)	change in vivo at 30 mg/kg (HuapoAI transgenic mice)	inhibition in vivo at 30 mg/kg (HuapoAI transgenic mice)
7.12	7.12	Cc1oc(-c2cccs2)nc1CCOc1ccc(CC(C)(Oc2ccccc2F)C(=O)O)cc1 (stereo not drawn) [Example 27, 2-(2-Fluoro-phenoxy)-2-methyl-3-{4-[2-(5-methyl-2-thiophen-2-yl-oxazol-4-yl)-ethoxy]-phenyl}-propionic acid]	49%	36.8%
6.94	7.32	Cc1oc(-c2ccccc2)nc1CCOc1ccc(CC(C)(Oc2ccc(Cl)cc2)C(=O)O)cc1 (stereo not drawn) [Example 29, 2-(4-Chloro-phenoxy)-2-methyl-3-{4-[2-(5-methyl-2-phenyl-oxazol-4-yl)-ethoxy]-phenyl}-propionic acid]	78%	–
7.04	7.11	Cc1oc(C2CCCCC2)nc1CCOc1ccc(CC(C)(Oc2ccc(C3CCCCC3)cc2)C(=O)O)cc1 (stereo not drawn) [Example 34, 3-{4-[2-(2-Cyclohexyl-5-methyl-oxazol-4-yl)-ethoxy]-phenyl}-2-(4-cyclohexyl-phenoxy)-2-methyl-propionic acid]	95%	57.1%
7.18	7.10	Cc1ccc(OC(C)(Cc2ccc(OCCc3nc(C4CCCCC4)oc3C)cc2)C(=O)O)cc1C (stereo not drawn) [Example 35, 3-{4-[2-(2-Cyclohexyl-5-methyl-oxazol-4-yl)-ethoxy]-phenyl}-2-(3,4-dimethyl-phenoxy)-2-methyl-propionic acid]	77%	32.3%
7.14	7.06	Cc1ccc(OC(C)(Cc2ccc(OCCc3nc(-c4cccs4)oc3C)cc2)C(=O)O)cc1C (stereo not drawn) [Example 36, 2-(3,4-Dimethyl-phenoxy)-2-methyl-3-{4-[2-(5-methyl-2-thiophen-2-yl-oxazol-4-yl)-ethoxy]-phenyl}-propionic acid]	30%	23%
7.30	8.00	Cc1ccc(OC(C)(Cc2ccc(OCCc3nc(-c4cccs4)oc3C)cc2)C(=O)O)cc1 (stereo not drawn) [Example 40, 2-Methyl-3-{4-[2-(5-methyl-2-thiophen-2-yl-oxazol-4-yl)-ethoxy]-phenyl}-2-p-tolyloxy-propionic acid]	131%	77.6%
